Measurements published in paper PMC9176665, “Legumain/pH dual-responsive lytic peptide–paclitaxel conjugate for synergistic cancer therapy” (Drug Delivery, 2022).
Converted amounts (≈) assume the structure as drawn.

Tests used:
Type in all cases: cell-based
MCF-7 cells = assay: MTT cytotoxicity assay; details: Homo sapiens, MCF7, 72 h, PTX concentration, n = 5
Method: (§1) MCF-7 cells, HCT116 cells, and 4T1 cells were seeded in 96-well plates at a density of 3 × 10^3/well. After 12 h, cancer cells were incubated with free PTX and PPP micelles with a PTX concentration from 0.001 µg/mL to 10 µg/mL in 200 µL culture mediums for 72 h. One hundred microliters of culture medium containing 10 µL MTT (5 mg/mL) was added to each well for another 4 h in the dark. The absorbance was measured at 570 nm by a microplate reader (Flexstation 3, Molecular Devices LLC, Sunnyvale, CA). Comparing treated wells with controlled wells, the cell viability was analyzed as mean ± SD (n = 5). In order to confirm the enzyme responsiveness of AAN between the mPEG and PTP-7, MTT assay was used to indirectly observe the cytotoxicity of PTP-7 cleaved by legumain. One microgram of recombinant mouse legumain (Abcam, Cambridge, UK) was activated in a buffer solution (pH 4.5) which contains 50 mM critic acid, 1 mM DTT, and 1 mM EDTA (Zhou et al., [2017]). Then, PP was dissolved in the legumain solution and incubated at 37 °C for 12 h. Next, culture medium containing 0.1–100 µg/mL of free PTP-7 or legumain treated mPEG-PTP-7 was added to cancer cells. After incubation for 24 h, the cell viability was calculated as above.
(§2) The cell lines were purchased from China Center for Type Culture Collection (Wuhan, China). MCF-7 and HCT116 cells were cultivated in DMEM and 1640 with 10% FBS and 1% PS. 4T1 cells were cultivated in 1640 containing 1% glutaMAX^TM-1, 1% MEM NEAA, 1% sodium pyruvate, 10% FBS and 1% PS. All cell lines were incubated in incubator at 37℃ and 5% CO2. All qualified mice were purchased from Hangzhou Medical College and fostered in laboratory animals and all animal experiments followed the ethical requirements set by the ethics committee of Zhejiang University of Technology (20210511034).

4T1 cells = assay: MTT cytotoxicity assay; details: Mus musculus, 72 h, PTX concentration, n = 5
Method: as §1, §2

HCT116 cells = assay: MTT cytotoxicity assay; details: Homo sapiens, HCT-116, 72 h, PTX concentration, n = 5
Method: as §1, §2

MCF-7 tumor spheroid = assay: Inhibition of tumor spheroid growth; details: MCF-7 spheroids, equivalent 0.1 µg/mL PTX, 9th day
Method: (§3) MCF-7 cells and HCT116 cells were dispersed in culture medium containing 10% methylcellulose (0.24%, w/v) at a density of around 1 × 10^5 cells/mL. Twenty microliters of the above medium was equably dropped on the lid of a […] cell culture dish and incubated at 37 °C for 24 h. When the tumor spheroids were formed, they were removed to 96-well plates which were pre-coated with agarose. After incubation for 72 h, MCF-7 tumor spheroid was treated with PPP and free PTX at equivalent 0.1 µg/mL PTX and HCT116 tumor spheroid was treated with PPP and free PTX at equivalent 0.05 µg/mL PTX. […] Measured with maximum diameter (dmax) and minimum diameter (dmin), the tumor spheroid volume was calculated by the following equation: V=[…], and the negative control tumor spheroids grew up in culture medium.

HCT116 tumor spheroid = assay: Inhibition of tumor spheroid growth; details: equivalent 0.05 µg/mL PTX, 9th day
Method: as §3

For `CC(=O)O[C@H]1C(=O)[C@@]2(C)[C@H]([C@H](OC(=O)c3ccccc3)[C@]3(O)C[C@H](OC(=O)[C@H](O)[C@@H](NC(=O)c4ccccc4)c4ccccc4)C(C)=C1C3(C)C)[C@]1(OC(C)=O)CO[C@@H]1C[C@@H]2O` [PTX, Paclitaxel], the IC50 (MCF-7 cells) was 0.028 µg/mL (≈ 0.0328 µM), the IC50 (4T1 cells) was 0.01 µg/mL (≈ 0.0117 µM) and the IC50 (HCT116 cells) was 6 ng/mL (≈ 0.00703 µM). For the same compound, the “inhibition of spheroids (volume)” value (MCF-7 tumor spheroid) was 47.88% and the “inhibition of spheroids (volume)” value (HCT116 tumor spheroid) was 20.51%.
